Values of other authors as cited in US20100113469A1, “COMBINATION THERAPY FOR THE TREATMENT-OF LOWER URINARY TRACT SYMPTOMS” (MERCK & CO., INC., priority 2007, published 2010).

Assays:
rats [1] = test system: rats
human bladders = conditions: in vitro
rats [2] = conditions: detrusor instability paradigm, oral
rats [3] = conditions: hyperreflexia paradigms, intravenous
rats [4] = conditions: intravenous
patients = conditions: instilled directly into the bladder

Cc1ccc(-c2c3n(c(=O)c4ncccc24)CC[C@@H](C)CN(Cc2cc(C(F)(F)F)cc(C(F)(F)F)c2)C3=O)cc1 [TAK-637]
carbachol or electrical field stimulation induced contractions (isolated bladder strips): had no effect | micturition reflex induced by electrical stimulation of the rostral brainstem near the locus coeruleus (decerebrate cats; 3 mg/kg i.v.): did not inhibit | voiding efficiency (decerebrate cats; decerebrate cats, 0.1, 0.3, 1 and 3 mg/kg i.v.): without any significant reduction in voiding efficiency | maximal increase in bladder capacity (decerebrate cats; decerebrate cats, 0.1, 0.3, 1 and 3 mg/kg i.v., dose-dependent): 94% | micturition reflex induced by topical application of capsaicin onto the bladder dome (guinea pig; guinea pig, in vivo): inhibited the micturition reflex | distension-induced rhythmic bladder contractions (guinea pig; guinea pig, systemic administration): decreased the number but not the amplitude | spinal vesico-vesical reflex induced by electrical stimulation of the proximal cut end of the pelvic nerve (guinea pig; spinal animals): inhibits the spinal vesico-vesical reflex

COc1ccccc1CC(=N)N1C[C@@H]2C(=O)CCC(c3ccccc3)(c3ccccc3)[C@@H]2C1 [RP 67580]
volume threshold (rats [1]; cyclophosphamide-induced bladder overactivity, i.t. vs i.v.): increased the volume threshold after i.t., but not i.v. administration

C=C(C)[C@]12C[C@@H](C)[C@@]34O[C@](Cc5ccccc5)(O[C@@H]1[C@@H]3C=C(COC(=O)Cc1ccc(O)c(OC)c1)C[C@]1(O)C(=O)C(C)=C[C@@H]41)O2 [Resinferatoxin]
potency relative to capsaicin (C-fibers): ~100 fold

CC(=O)NC1(c2ccccc2)CCN(CC[C@H](CN(C)C(=O)c2ccccc2)c2ccc(Cl)c(Cl)c2)CC1 [SR 48968]
response in cyclophosphamide-induced model (rats [1]; 10 nmol/rat): moderate response

CCCCCCNC(=O)Nc1ccc(S(=O)(=O)Nc2ccc(CCNC[C@H](O)COc3ccc(O)cc3)cc2)cc1 [L-755507]
relaxation evoked in control versus obstructed human bladders (human bladders): equivalent

C[C@H](Cc1ccc2c(c1)OC(C(=O)[O-])(C(=O)[O-])O2)NC[C@H](O)c1cccc(Cl)c1.[Na+].[Na+] [CL316243]
spontaneous bladder contractions (rats [2]): dose-dependent inhibition of spontaneous bladder contractions | voiding interval (rats [3]): dose-dependently normalizes voiding interval | bladder pressure (rats [4]): reduces bladder pressure | bladder capacity (rats [4]; cystometric studies): increases bladder capacity | residual urine volume (rats [4]; cystometric studies): without increasing residual urine volume

COc1cc(CNC(=O)CCCC/C=C/C(C)C)ccc1O [Capsaicin, capsaicin]
patients with beneficial effects (i.e. increased bladder capacity) (patients): ~70%
